Test results: patent publication US11866704B2, “Nucleic acid molecules and uses thereof” (Macau University of Science and Technology, priority 2020, dated 2024)
pIC50: −log10 of the molar value. [s4U] = 4-thiouridine base; m = 2'-O-methyl; r = 2'-OH (RNA)

Key:
HCT-8 cells [1] = assay: Wound-healing assay on HCT-8 cells; type: cell-based, human; conditions: 50 nM, vs control group
Protocol: (§1) HCT-8, fluorouracil-resistant HCT-8, fluorouracil-resistant LoVo cell lines were cultured in RPMI Medium 1640 medium containing 10% FBS and 1% penicillin/streptomycin. LoVo cell line was cultured in F-12K medium containing 10% FBS and 1% penicillin/streptomycin. All cell lines above were cultured at humidified atmosphere containing 5% CO2 at 37° C.
(§2) In the wound-healing assay, HCT-8 or LoVo cells were plated in 6-well microplate at a density of 500,000 cells per well in 2 mL of culture medium and allowed to adhere for 24 h before treatment. […] A 1 mL bacteria-free pipette tip was used to make a cross-scratch at the bottom of 6-well microplate. The cells in the scratch were washed away using phosphor buffer solution and the 6-well microplate was photographed under a microscope. Single concentration of RNA molecules obtained in Example 1 to 4 in a mixture containing a gene delivery carrier, i.e. Lipofectamine™ RNAiMAX Transfection Reagent (Thermo Fisher Scientific, U.S.A.) were then added to the cells. The cells were then photographed under microscope at 24 and 48 h. ImageJ software was applied to quantify the area of wound created. Each experiment was carried out for three times. Results were expressed as means±standard deviation.

HCT-8 cells [2] = assay: Clonogenic assay on HCT-8 cells; type: cell-based, human; conditions: 50 nM, vs control group
Protocol: as §1
(§3) In the clonogenic assay, HCT-8 or LoVo cells were plated in 6-well microplate at a density of 1000 cells per well in 2 mL of culture medium and allowed to adhere for 24 h before treatment. Single concentration of RNA molecules obtained in Example 1 to 4 in a mixture containing a gene delivery carrier, i.e. Lipofectamine™ RNAiMAX Transfection Reagent (Thermo Fisher Scientific, U.S.A.) were then added to the cells. After treated for 48 h, discarded the drug solutions and replaced with 2 mL of fresh culture medium. After culture 14 days, discarded the culture medium and the cells were fixated with 4% paraformaldehyde fix solution for 20 min, followed by stained with crystal violet for 10 min and then washed by deionized water. The 6-well microplate was photographed and the number of colonies with more than 50 individual cells were counted using ImageJ software (U.S.A.). Each experiment was carried out for three times. Results were expressed as means±standard deviation.

[3] = tested on: LoVo/5-FU (5-FU-resistant strain of LoVo); assay: MTT cytotoxicity assay on LoVo/5-FU cells; type: cell-based
Protocol: as §1
(§4) In the cytotoxicity assay, exponentially growing cells of each cancer cell line were plated in 96-well microplate at a density of 5000 cells per well in 100 μL of culture medium and allowed to adhere for 24 h before treatment. Serial concentrations of RNA molecules obtained in Example 1 to 4 in a mixture containing a gene delivery carrier, i.e. Lipofectamine™ RNAiMAX Transfection Reagent (Thermo Fisher Scientific, U.S.A.) were then added to the cells. After treated for 48 h, MTT solution (50 μL per well, 1 mg/mL solution) was added to each well and incubated for 4 h at 37° C. Subsequently, 200 μL dimethyl sulfoxide (DMSO) were added and the optical densities of the resulting solutions were calorimetrically determined at 570 nm using a SpectraMax 190 microplate reader (Molecular Devices, Sunnyvale, CA, U.S.A). Dose-response curves were obtained, and the IC50 values were calculated by GraphPad Prism 5 (GraphPad, La Jolla, CA, USA). Each experiment was carried out for three times. IC50 results were expressed as means±standard deviation.

[4] = tested on: HCT-8 human ileocecal colorectal adenocarcinoma cell line; assay: MTT cytotoxicity assay on HCT-8 cells; type: cell-based; conditions: HCT-8
Protocol: as §1, §4

LoVo cells [5] = assay: Wound-healing assay on LoVo cells; type: cell-based; conditions: 25 nM, vs control group
Protocol: as §1, §2

LoVo cells [6] = assay: Clonogenic assay on LoVo cells; type: cell-based; conditions: 25 nM, vs control group
Protocol: as §1, §3

[7] = tested on: HCT-8/5-FU (5-FU-resistant strain of HCT-8); assay: MTT cytotoxicity assay on HCT-8/5-FU cells; type: cell-based, human
Protocol: as §1, §4

[8] = tested on: LoVo colorectal adenocarcinoma cell line; assay: MTT cytotoxicity assay on LoVo cells; type: cell-based
Protocol: as §1, §4

EC83-M3 mimic: modified EC83 dsRNA; antisense SEQ ID NO: 3 GCCGAAG[s^4U]GGCGAAAUC[Gm]GUAG, sense SEQ ID NO: 6 CUACCGAUUUCGCCACUUCGGC (antisense GCCGAAGUGGCGAAAUCGGUAG; antisense: sugars from the 5' end r17 m1 r4, [s4U] at 8, backbone not given here; sense: RNA, backbone not given here; tRNA-derived fragment mimic duplex)
wound area, inhibition of migration (FIG. 9A) (HCT-8 cells [1]): significantly inhibit the migration | colony number, inhibition of proliferation (FIG. 8A) (HCT-8 cells [2]): significantly inhibit the proliferation | effect on growth and proliferation (FIGS. 7A, 7B) ([3]; 6.25-100 nM): dose-dependent effect on inhibiting the growth and proliferation | pIC50 ([3]; MTT, 48 h treatment): 7.64 | effect on growth and proliferation (FIGS. 7A, 7B) ([4]; 6.25-100 nM): dose-dependent effect on inhibiting the growth and proliferation | pIC50 ([4]; MTT, 48 h treatment): 7.13 | wound area, inhibition of migration (FIG. 9B) (LoVo cells [5]): significantly inhibit the migration | colony number, inhibition of proliferation (FIG. 8B) (LoVo cells [6]): significantly inhibit the proliferation | effect on growth and proliferation (FIGS. 7A, 7B) ([7]; 6.25-100 nM): dose-dependent effect on inhibiting the growth and proliferation | pIC50 ([7]; MTT, 48 h treatment): 7.14 | effect on growth and proliferation (FIGS. 7A, 7B) ([8]; 6.25-100 nM): dose-dependent effect on inhibiting the growth and proliferation | pIC50 ([8]; MTT, 48 h treatment): 7.62
